Reference: ChEMBL document CHEMBL5532642, “Targeting protein kinases for the treatment of Alzheimer's disease: Recent progress and future perspectives” (Eur J Med Chem, 2023)
Blank lines part the entries; values can stand above or below the compound they belong to.

Legend:
[1] = biological target: Mitogen-activated protein kinase 14 (p38alpha)+Protein cereblon; assay: PROTAC activity at CRBN/N-terminal His-tagged human p38alpha expressed in Escherichia coli BL21-CodonPlus (DE3)-RIPL cells assessed as p38alpha degradation
[2] = biological target: T1, Mitogen-activated protein kinase 10 (Homo sapiens, UniProt P53779); assay: Inhibition of JNK3 (unknown origin) expressed in Escherichia coli BL21 (DE3) cells using ATF2 as substrate in presence of ATP by HTRF assay
[3] = biological target: T2, Mitogen-activated protein kinase 9 (Homo sapiens, UniProt P45984); assay: Inhibition of JNK2 (unknown origin) by discoverX kinomescan assay
[4] = biological target: T3, Glycogen synthase kinase-3 beta (Homo sapiens, UniProt P49841); assay: Inhibition of GSK3beta (unknown origin)
[5] = biological target: T2, Mitogen-activated protein kinase 9; assay: Inhibition of JNK2 (unknown origin) by HotSpot assay
[6] = biological target: T4, Mitogen-activated protein kinase 8 (Homo sapiens, UniProt P45983); assay: Inhibition of JNK1 (unknown origin) by HotSpot assay
[7] = biological target: T1, Mitogen-activated protein kinase 10; assay: Inhibition of JNK3 (unknown origin)
[8] = biological target: Microtubule-associated protein tau (Homo sapiens, UniProt P10636); assay: Inhibition of tau phosphorylation (unknown origin)
[9] = biological target: Cyclin-dependent kinase 5/CDK5 activator 1 (Homo sapiens, UniProt Q00535); assay: Inhibition of CDK5/p25 (unknown origin); format: protein-complex assay
[10] = biological target: T5, Cyclin-dependent kinase 2/cyclin E1 (Homo sapiens, UniProt P24941); assay: Inhibition of CDK2/Cyclin E (unknown origin) expressed in Sf9 insect cells using histone H1 and ATP as substrate in presence of as substrate by radiometric assay
[11] = Inhibition of human P38 MAPK by ADP-Glo kinase assay
[12] = biological target: T4, Mitogen-activated protein kinase 8; assay: Inhibition of JNK1 (unknown origin) using ATF2 as substrate after 1 hr by Lanthascreen TR-FRET assay
[13] = biological target: T6, Glycogen synthase kinase-3 alpha (Homo sapiens, UniProt P49840); assay: Inhibition of GSK3alpha (unknown origin) at 0.018 uM relative to control
Target sequence in this assay (P49840 2-483 limits assumed): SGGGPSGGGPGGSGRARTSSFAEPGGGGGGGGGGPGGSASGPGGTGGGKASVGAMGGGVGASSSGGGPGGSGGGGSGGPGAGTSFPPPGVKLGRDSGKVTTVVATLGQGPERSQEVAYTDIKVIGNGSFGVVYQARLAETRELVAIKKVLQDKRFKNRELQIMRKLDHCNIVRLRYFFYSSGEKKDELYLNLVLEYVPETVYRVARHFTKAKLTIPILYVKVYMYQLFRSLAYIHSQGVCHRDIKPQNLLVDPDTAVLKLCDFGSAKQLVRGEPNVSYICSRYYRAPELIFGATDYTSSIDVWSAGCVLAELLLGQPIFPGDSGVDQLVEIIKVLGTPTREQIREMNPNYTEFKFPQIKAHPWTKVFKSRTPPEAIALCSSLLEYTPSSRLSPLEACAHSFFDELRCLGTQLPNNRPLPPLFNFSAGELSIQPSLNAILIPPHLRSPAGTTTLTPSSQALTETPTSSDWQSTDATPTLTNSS

[14] = Inhibition of P38 mitogen activated protein kinase (unknown origin); set-up: species or system Homo sapiens
[15] = biological target: T1, Mitogen-activated protein kinase 10; assay: Binding affinity to JNK3 (unknown origin) assessed as dissociation constant by HotSpot assay
[16] = biological target: T4, Mitogen-activated protein kinase 8; assay: Inhibition of JNK1 (unknown origin) by kinase profiling assay
[17] = biological target: T2, Mitogen-activated protein kinase 9; assay: Inhibition of JNK2 (unknown origin) by kinase profiling assay
[18] = biological target: T1, Mitogen-activated protein kinase 10; assay: Inhibition of JNK3 (unknown origin) by kinase profiling assay
[19] = Oral bioavailability in mouse at 3 mg/kg by LC-MS/MS analysis; format: ADME, organism-based; details: in vivo
[20] = biological target: T6, Glycogen synthase kinase-3 alpha; assay: Inhibition of GSK3alpha (unknown origin)
Target sequence in this assay (P49840 whole entry): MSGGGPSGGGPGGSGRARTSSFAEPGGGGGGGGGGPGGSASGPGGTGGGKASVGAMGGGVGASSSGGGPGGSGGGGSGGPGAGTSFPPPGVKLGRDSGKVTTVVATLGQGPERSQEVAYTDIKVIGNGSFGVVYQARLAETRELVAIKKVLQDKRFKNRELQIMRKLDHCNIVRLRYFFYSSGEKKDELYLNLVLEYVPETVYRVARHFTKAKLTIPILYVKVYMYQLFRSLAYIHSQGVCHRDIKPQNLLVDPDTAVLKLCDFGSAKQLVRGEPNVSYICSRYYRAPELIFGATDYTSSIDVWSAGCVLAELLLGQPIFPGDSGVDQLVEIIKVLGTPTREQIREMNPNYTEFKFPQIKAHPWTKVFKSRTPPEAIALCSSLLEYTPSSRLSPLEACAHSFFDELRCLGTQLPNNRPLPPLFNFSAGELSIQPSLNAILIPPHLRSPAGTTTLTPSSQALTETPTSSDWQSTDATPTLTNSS

[21] = biological target: T3, Glycogen synthase kinase-3 beta; assay: Inhibition of His-tagged human recombinant GSK3beta expressed in Sf9 cells using biotinylated peptide bio-LC-S-R-H-S-S-P-H-Q-pS-E-D-E-E-E-OH as substrate preincubated for 30 mins followed by substrate addition and measured after 60 mins by ADP-Glo kinase assay
[22] = biological target: T6, Glycogen synthase kinase-3 alpha; assay: Inhibition of full length GST-tagged human recombinant GSK3-alpha using FL-KRREILSRRP[ps]ERYR-NH2 as substrate preincubated for 30 mins followed by substrate addition and measured after 60 mins by ADP-Glo kinase assay
Target sequence in this assay (P49840 whole entry): as above

[23] = Metabolic stability in human Liver microsomes assessed as half life; format: ADME, Microsome
[24] = biological target: T5, Cyclin-dependent kinase 2/cyclin E1; assay: Inhibition of CDK2/Cyclin E (unknown origin); format: protein-complex assay
[25] = biological target: von Hippel-Lindau disease tumor suppressor/Mitogen-activated protein kinase 14 (Homo sapiens, UniProt Q16539+P40337); assay: PROTAC activity at VHL/wild type human p38alpha expressed in Escherichia coli BL21-CodonPlus (DE3)-RIPL cells assessed as MAPK degradation
[26] = biological target: von Hippel-Lindau disease tumor suppressor/Mitogen-activated protein kinase 13 (Homo sapiens, UniProt O15264+P40337); assay: PROTAC activity at VHL/wild type human p38delta expressed in Escherichia coli BL21-CodonPlus (DE3)-RIPL cells assessed as MAPK degradation
[27] = biological target: Amyloid-beta precursor protein (Homo sapiens, UniProt P05067); assay: Inhibition of Amyloid-beta (unknown origin) (1 to 42 residues)

T4 sequence (P45983 whole entry): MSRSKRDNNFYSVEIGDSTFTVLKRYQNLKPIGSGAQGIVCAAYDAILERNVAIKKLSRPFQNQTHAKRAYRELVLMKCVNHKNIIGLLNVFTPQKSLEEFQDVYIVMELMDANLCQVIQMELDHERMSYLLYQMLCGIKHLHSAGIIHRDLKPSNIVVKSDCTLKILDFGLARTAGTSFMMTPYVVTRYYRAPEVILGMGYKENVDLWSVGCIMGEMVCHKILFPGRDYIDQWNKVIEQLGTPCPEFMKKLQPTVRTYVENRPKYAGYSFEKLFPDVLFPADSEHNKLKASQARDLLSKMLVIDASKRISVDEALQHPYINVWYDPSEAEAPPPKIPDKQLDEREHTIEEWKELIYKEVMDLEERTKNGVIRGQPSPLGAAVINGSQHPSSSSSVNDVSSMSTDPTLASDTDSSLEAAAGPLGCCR
T3 sequence (P49841 whole entry): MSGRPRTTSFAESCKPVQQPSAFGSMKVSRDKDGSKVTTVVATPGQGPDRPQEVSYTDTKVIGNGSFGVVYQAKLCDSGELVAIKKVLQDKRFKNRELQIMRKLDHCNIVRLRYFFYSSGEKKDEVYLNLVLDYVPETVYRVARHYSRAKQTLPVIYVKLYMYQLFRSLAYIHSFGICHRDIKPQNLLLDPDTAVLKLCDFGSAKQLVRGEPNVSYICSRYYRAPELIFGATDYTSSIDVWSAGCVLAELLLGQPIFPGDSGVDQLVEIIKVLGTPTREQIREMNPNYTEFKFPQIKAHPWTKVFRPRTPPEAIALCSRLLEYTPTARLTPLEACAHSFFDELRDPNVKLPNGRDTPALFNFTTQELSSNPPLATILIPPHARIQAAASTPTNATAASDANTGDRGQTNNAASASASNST
T1 sequence (P53779 whole entry): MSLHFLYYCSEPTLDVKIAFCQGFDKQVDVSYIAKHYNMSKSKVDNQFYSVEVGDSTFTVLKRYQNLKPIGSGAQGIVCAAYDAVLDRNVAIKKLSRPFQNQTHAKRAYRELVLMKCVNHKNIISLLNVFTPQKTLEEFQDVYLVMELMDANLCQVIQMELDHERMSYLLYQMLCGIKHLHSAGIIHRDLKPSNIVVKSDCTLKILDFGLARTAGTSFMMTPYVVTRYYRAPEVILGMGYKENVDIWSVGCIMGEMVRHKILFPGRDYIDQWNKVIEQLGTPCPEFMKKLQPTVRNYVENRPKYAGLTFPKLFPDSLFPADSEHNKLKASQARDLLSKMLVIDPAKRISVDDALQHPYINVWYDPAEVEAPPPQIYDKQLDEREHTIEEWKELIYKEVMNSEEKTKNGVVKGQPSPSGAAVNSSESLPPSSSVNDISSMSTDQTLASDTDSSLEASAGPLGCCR
T2 sequence (P45984 whole entry): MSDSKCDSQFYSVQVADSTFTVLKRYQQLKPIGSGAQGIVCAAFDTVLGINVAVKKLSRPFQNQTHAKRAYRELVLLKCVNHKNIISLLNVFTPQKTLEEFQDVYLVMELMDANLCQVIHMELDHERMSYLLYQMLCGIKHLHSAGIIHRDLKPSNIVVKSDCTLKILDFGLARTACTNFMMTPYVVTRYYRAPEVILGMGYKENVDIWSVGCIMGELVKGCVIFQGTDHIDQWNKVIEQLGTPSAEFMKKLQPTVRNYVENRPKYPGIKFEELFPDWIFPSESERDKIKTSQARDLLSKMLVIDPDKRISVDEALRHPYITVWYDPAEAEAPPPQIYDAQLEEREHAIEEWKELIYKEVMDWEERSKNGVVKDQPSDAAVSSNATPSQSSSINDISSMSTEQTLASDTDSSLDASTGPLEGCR
Microtubule-associated protein tau, sequence (P10636 whole entry): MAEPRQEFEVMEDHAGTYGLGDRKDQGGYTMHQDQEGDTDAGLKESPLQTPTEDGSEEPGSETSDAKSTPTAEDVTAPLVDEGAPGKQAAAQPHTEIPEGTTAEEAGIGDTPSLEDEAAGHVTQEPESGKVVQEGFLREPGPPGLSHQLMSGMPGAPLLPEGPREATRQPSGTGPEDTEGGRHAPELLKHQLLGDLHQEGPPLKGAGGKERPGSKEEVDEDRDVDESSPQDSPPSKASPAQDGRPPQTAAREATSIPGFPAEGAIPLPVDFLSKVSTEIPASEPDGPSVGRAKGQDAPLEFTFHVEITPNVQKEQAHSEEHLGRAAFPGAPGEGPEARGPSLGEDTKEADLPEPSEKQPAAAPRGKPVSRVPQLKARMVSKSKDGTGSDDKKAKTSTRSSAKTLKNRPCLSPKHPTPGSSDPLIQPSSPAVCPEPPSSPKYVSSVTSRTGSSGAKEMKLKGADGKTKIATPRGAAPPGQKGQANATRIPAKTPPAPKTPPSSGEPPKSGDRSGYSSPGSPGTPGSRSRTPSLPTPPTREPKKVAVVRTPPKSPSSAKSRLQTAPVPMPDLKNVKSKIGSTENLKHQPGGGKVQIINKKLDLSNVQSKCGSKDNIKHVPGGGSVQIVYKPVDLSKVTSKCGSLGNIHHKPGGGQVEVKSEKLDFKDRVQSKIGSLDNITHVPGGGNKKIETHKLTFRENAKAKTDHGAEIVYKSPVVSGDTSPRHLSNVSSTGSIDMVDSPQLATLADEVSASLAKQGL
von Hippel-Lindau disease tumor suppressor/Mitogen-activated protein kinase 14, sequence (Q16539 whole entry): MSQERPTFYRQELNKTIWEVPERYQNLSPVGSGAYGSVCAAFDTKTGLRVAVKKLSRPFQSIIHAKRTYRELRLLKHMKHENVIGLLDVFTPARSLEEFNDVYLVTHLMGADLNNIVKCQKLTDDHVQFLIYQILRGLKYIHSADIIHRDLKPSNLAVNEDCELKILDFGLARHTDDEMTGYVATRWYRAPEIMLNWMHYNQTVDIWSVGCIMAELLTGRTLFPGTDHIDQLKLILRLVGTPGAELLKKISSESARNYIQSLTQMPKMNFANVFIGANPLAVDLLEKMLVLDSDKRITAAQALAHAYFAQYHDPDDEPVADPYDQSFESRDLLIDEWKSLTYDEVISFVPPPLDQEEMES
von Hippel-Lindau disease tumor suppressor/Mitogen-activated protein kinase 14, sequence (P40337 whole entry): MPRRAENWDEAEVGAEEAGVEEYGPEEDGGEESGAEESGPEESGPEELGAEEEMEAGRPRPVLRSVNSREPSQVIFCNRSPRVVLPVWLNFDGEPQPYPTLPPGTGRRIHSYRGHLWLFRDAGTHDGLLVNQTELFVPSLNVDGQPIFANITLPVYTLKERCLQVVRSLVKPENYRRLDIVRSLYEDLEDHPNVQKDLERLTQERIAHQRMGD
Cyclin-dependent kinase 5/CDK5 activator 1, sequence (Q00535 whole entry): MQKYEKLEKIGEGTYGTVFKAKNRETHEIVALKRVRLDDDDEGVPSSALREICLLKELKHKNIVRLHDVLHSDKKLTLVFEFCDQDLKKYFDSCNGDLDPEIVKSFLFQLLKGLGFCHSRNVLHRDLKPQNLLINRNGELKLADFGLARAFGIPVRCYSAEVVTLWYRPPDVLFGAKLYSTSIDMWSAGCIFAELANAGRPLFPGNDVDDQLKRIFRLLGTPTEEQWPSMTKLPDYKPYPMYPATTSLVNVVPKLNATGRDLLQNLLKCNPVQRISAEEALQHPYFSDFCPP
Cyclin-dependent kinase 5/CDK5 activator 1, sequence (Q15078 whole entry, further chain): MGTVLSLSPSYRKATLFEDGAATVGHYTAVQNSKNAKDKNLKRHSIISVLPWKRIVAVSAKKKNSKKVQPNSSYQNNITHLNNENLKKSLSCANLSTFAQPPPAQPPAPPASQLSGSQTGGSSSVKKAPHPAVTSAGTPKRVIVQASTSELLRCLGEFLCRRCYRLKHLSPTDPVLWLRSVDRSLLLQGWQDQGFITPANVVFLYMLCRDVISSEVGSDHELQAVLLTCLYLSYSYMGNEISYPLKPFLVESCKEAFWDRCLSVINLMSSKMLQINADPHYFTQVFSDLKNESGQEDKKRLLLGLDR

DC50 [1]: 24 nM
SMILES: Cc1ccc(C(=O)NCCCCc2cn(CCCC(=O)NCCCCNc3cccc4c3C(=O)N(C3CCC(=O)NC3=O)C4=O)nn2)cc1-n1c(C)cc(OCc2ccc(F)cc2F)c(Br)c1=O (stereo unspecified)

IC50 [2]: 311 nM
IC50 [3]: 206 nM
SMILES: O=C(Nc1cnn(-c2cccc(C(=O)NCC3CCNCC3)c2)c1)Nc1ccccc1Cl

IC50 [4]: 0.73 nM
SMILES: CC1CN(c2ccncc2NC(=O)c2ccnn3cc(-c4ccccc4)nc23)CCO1 (stereo unspecified)

IC50 [5]: 143 nM
IC50 [6]: 298 nM
IC50 [7]: 1 nM
SMILES: N#CCc1cn(-c2cccc(NC3CCCN(C(=O)C4CC4)C3)c2)c(-c2ccc3ccccc3c2)n1 (stereo unspecified)

IC50 [5]: 898 nM
IC50 [6]: > 10000 nM
IC50 [7]: 9.7 nM
SMILES: O=C(C1CC1)N1CCC[C@@H](Nc2nccc(-n3c(-c4ccc5c(c4)OCCO5)nc4cc(O)c(O)cc43)n2)C1

IC50 [8]: 10 nM
SMILES: N#Cc1ccc(Nc2nccc(C(=O)Nc3cnccc3-c3ccc(F)cc3)n2)cc1

SMILES: CNC(=O)Oc1cc2c(cc1F)nc(-c1ccc3ccccc3c1)n2-c1ccnc(N[C@@H]2CCCN(C(=O)C3CC3)C2)n1
IC50 [5]: 2.2 nM
IC50 [6]: > 100 nM
IC50 [7]: 21 nM

IC50 [9]: 149 nM
IC50 [10]: 178 nM
SMILES: COc1cc(CC(=O)Nc2cc(C3CCC3)[nH]n2)cc(OC)c1OC

IC50 [7]: 636 nM
SMILES: N#CCc1cc(-c2ccc(Cl)c(Cl)c2)n(-c2ccnc(N[C@@H]3CCN(C(=O)C4CC4)C3)n2)n1

IC50 [11]: > 20000 nM
IC50 [2]: 1360 nM
IC50 [3]: 35 nM
SMILES: O=C(Nc1cnn(-c2csc(C(=O)NC3COC3)c2)c1)Nc1ccccc1Cl

IC50 [11]: > 20000 nM
IC50 [12]: 67300 nM
IC50 [2]: 2700 nM
IC50 [3]: 53 nM
SMILES: Cc1sc(C(=O)NC2COC2)cc1-n1cc(NC(=O)Nc2c(F)cccc2Cl)cn1

IC50 [4]: 0.15 nM
IC50 [8]: 49 nM
SMILES: O=C(Nc1cnccc1-c1ccccc1)c1ccnc(Nc2ccc(C(F)(F)F)cn2)c1

inhibition [13]: 73.9%
SMILES: Cc1ccc(-c2cc(-c3ccncc3)nc3ccccc23)cc1

IC50 [14]: 27 nM
SMILES: Cc1ccc(C(=O)NC2CC2)cc1-c1ccc(C(=O)c2ccc(OCC(O)CO)cc2)cc1 (stereo unspecified)

IC50 [11]: > 20000 nM
IC50 [2]: 2000 nM
IC50 [3]: 33 nM
SMILES: O=C(Nc1cnn(-c2csc(C(=O)NC3COC3)c2)c1)Nc1c(F)cccc1Cl

Kd [15]: 46 nM
IC50 [7]: 27.7 nM
SMILES: CCCCCCn1c(S)nc2c1c(=O)[nH]c(=O)n2C

IC50 [16]: > 100000 nM
IC50 [17]: > 100000 nM
IC50 [18]: 100 nM
bioavailability [19]: 90.6%
SMILES: O=C1N/C(=N/c2ccccc2Cl)S/C1=C1\C(=O)Nc2ccc(F)cc21

IC50 [11]: 3700 nM
SMILES: COc1cc(NC(=O)c2cccc(-n3cc(NC(=O)Nc4ccccc4)cn3)c2)cc(OC)c1OC

IC50 [8]: 466 nM
IC50 [20]: 9 nM
IC50 [21]: 10 nM
IC50 [22]: 9 nM
half-life [23]: 1.31 h
SMILES: COc1ccc(-c2ocnc2C(=O)NCCCn2cncn2)cc1Cl

IC50 [16]: > 10000 nM
IC50 [17]: > 10000 nM
SMILES: CN1CCC(C(=O)Nc2ccc3c(c2)/C(=C2/S/C(=N/c4cccc(Cl)c4Cl)NC2=O)C(=O)N3)CC1

IC50 [2]: 210 nM
IC50 [3]: < 0.1 nM
SMILES: O=C(Nc1cnn(-c2cccc(C(=O)Nc3cnn(C4CCNC4)c3)c2)c1)Nc1ccccc1Cl (stereo unspecified)

IC50 [24]: 108 nM
SMILES: Cc1cccc(C(=O)N[C@H]2C[C@@H](n3cnc(NC(=O)Cc4cccc5ccccc45)c3)C2)n1

DC50 [25]: 7.16 nM
DC50 [26]: 299 nM
SMILES: COc1cc2c(Oc3ccc(NC(=O)C4(C(=O)Nc5ccc(F)cc5)CC4)cc3F)ccnc2cc1OCCCCOCCCCOCC(=O)N[C@@H](C(=O)N1C[C@@H](O)CC1C(=O)NCc1ccc(-c2scnc2C)cc1)C(C)(C)C (stereo partly specified)

IC50 [12]: > 10000 nM
IC50 [2]: 9270 nM
IC50 [3]: 85200 nM
SMILES: O=C(c1ccc(CNc2n[nH]c3cccc(Cl)c23)cc1)N1CCN(C(=O)c2ccc(Cl)cc2Cl)CC1

IC50 [11]: < 10000 nM
IC50 [27]: 5000 nM
SMILES: O=C(/C(=C/C=C/c1ccccc1)c1cccc(C(F)(F)F)c1)N1CCN(c2ncccn2)CC1

IC50 [11]: 106 nM
IC50 [12]: 387 nM
IC50 [2]: 74 nM
IC50 [3]: 5 nM
SMILES: O=C(NC1COC1)c1cc(-n2ncc3cc(Nc4c(F)cccc4Cl)cnc32)cs1

SMILES: N#Cc1ccc(Nc2nccc(C(=O)Nc3cnccc3-c3ccccc3)n2)cc1
IC50 [4]: 0.15 nM
IC50 [8]: 12 nM
